Assay results reported in US20020155172A1, “Methods and compounds for decreasing cell toxicity or death” (priority 2000, published 2002).

Experiments:
R62 mice [1] = experiment: Rotarod motor performance, second study; type: in vivo; settings: 10 rpm, maximum 210 seconds
Description: FIG. 10F is a graph of the effect of PBS (vehicle; delivered intraperitoneally (IP)) or Congo red, infused intraperitoneally (IP), by intracerebroventricular cannula (ICV) implanted into the predetermined coordinates on the left ventricle, or by both routes, on motor performance, as assessed by latency to fall measurements using a rotorod.
(§1) In addition, the ability of Congo red to inhibit the formation as well as to disrupt preformed polyglutamine oligomers allowed us to examine the role of polyglutamine aggregates in neuronal dysfunction and degeneration characteristic of polyglutamine expansion diseases. In these studies, we used the animal model of Huntington's disease (R62), which expresses the truncated form of huntingtin with 139 CAG repeats Mangiarini et al. (supra). We took advantage of our finding that in addition to inhibiting polyglutamine oligomerization, Congo red also disrupts pre-formed oligomers, thus allowing assessment of the impact of Congo red on disease progression after formation of polyglutamine aggregates and the onset of symptoms. […]
(§2) The initial abnormal neurological signs of R62 mice include dyskinesia of the hindlimbs when mice were suspended by the tail, and irregular gait. […] The effect of Congo red on motor performance in R62 mice was also assessed by rotarod studies. […]

[2] = test system: HeLa cells co-transfected with a luciferase construct together with Q79-GFP; experiment: Protein synthesis by luciferase activity in Q79 expressing HeLa cells; type: cell-based; settings: 48 hours after transfection
R62 mice [3] = experiment: Dyskinesia of the hindlimbs, gait and stride length (ink test); type: in vivo
Description: FIG. 10D is a set of scanned images of the effect of Congo red or PBS (vehicle) on motor coordination, as assessed by the “ink” test in HD transgenic mice three weeks after Congo red or vehicle treatment. The “ink” test was used to determine the changes in stride length and the overlap of steps characteristic of movement disorders using red and green food coloring to mark the front and back paws, respectively. Changes in stride length of individual mice from one set of paws (brackets) and the differences in the step overlapping patterns (open arrows) three weeks after vehicle or Congo red treatment were assayed.
FIG. 10E is a table of the quantification of changes in stride length in HD transgenic mice treated with either Congo red or PBS (vehicle) (#, n=5 in each cohort), assessed as described in FIG. 10D.
as §1, with “symptoms. R62 transgenic mice and CBAxC57B1/6 F1 wild type littermates were obtained from Jackson Laboratories (Bar Harbor, Me.) at the age of five weeks.” for “symptoms.”
as §2

[4] = test system: Q79-Q79 interaction (Q79-ECFP/EYFP-Q79); experiment: FRET-Q79 assay; type: biochemical; settings: aggregates treated with 100 Congo red; 488 nm excitation, 527 nm emission
Description: To rule out the possibility that Congo red merely disrupts large polyglutamine aggregates without affecting oligomeric polyglutamine interaction that may be invisible to fluorescence microscopy, we designed a FRET-Q79 assay. In this assay, the expression constructs EYFP-Q79 (enhanced yellow fluorescent protein fused to a polypeptide containing 79 polyglutamines) and Q79-ECFP (enhanced cyan fluorescent protein fused to a polypeptide containing 79 polyglutamines) were co-transfected into HeLa cells. The EYFP-HAQ79 was made by ligation of a SacI/Notl digested insert from HA-Q79 CMX (Sanchez et al., 1999, supra) into the plasmid CFP-C1, described by Sanchez et al. (supra) after Sac1 digestion and blunting. […]
The lysates were passed through a needle to ensure release of polyglutamine inclusions from the nuclei. […] The fluorescence resonance energy transfer (FRET) was determined from polyglutamine oligomers formed in Q79-ECFP/EYFP-Q79 expressing cells upon addition of PBS or Congo red. Specifically, the interaction of the tagged Q79 polypeptides was detected by immunofluorescence at 488 nm excitation and 527 nm emission for FRET using a Wallach plate reader, and the ratio of the immunofluorescence was determined. Immunofluorescence levels were also detected for each ECFP and EYFP independent of the effect of Congo red on fluorescence emission wavelengths.

[5] = ink test three weeks after treatment

## Nc1c(/N=N/c2ccc(-c3ccc(/N=N/c4cc(S(=O)(=O)O)c5ccccc5c4N)cc3)cc2)cc(S(=O)(=O)O)c2ccccc12 [Congo red, diphenyldiazo-bis-alpha-napthylaminesulfonate]
R62 mice [1]
  motor performance on rotarod: preserved
[2]
  loss of luciferase activity (protein synthesis): prevented the loss of luciferase activity
R62 mice [3]
  dyskinesia of the hindlimbs: significantly inhibited the dyskinesia of the hindlimbs
R62 mice [3]; [5]
  gait: preserved the normal gait
  stride length: preserved the normal gait (FIG. 10D) and stride length
[4]
  FRET ratio: significantly reduced
